Patent US20020168329A1, “Skin composition” (Unilever Home & Personal Care USA, Division of Conopco, Inc., priority 2001, published 2002)

Tested on: Volunteers with oily skin type
Test: Oil (sebum) secretion on the skin measured with Sebumeter SM 810 PC after one week of twice-daily cream use
Type: in vivo, human
Settings: after 2 hours; conclusion from Table 1
Procedure: Method of Testing Oil Secretion:
The above mentioned formulations (Examples 1 to 4) were tested for their efficacy in reducing the oil secretion on the skin using a sebumeter by the following protocol.
Volunteers with oily skin type were recruited. The initial sebum was measured with Sebumeter SM 810 PC on the cheeks, and the selection was made such that they had approximately similar sebum profile. The panellists were asked to use 0.5 g of the assigned cream on their face twice a day, for one week. The sebum profile was measured on the 8th day. The panellists washed their face and the sebum secretion on the skin surface after 2 hours was measured using the Sebumeter SM 810 PC on the cheeks.
Sebumeter is a device for measuring sebum content on skin surface. A piece of plastic film (wound in the form of a cassette) is kept on the skin for 30 sec. By this means the […] measuring area of the plastic film becomes transparent due to absorbed sebum. […] Sebumeter SM 810 PC immediately indicates sebum content between 50 & 300 μgm/cm^2 % sebum reduction is calculated.
The protocol to measure the % reduction in sebum secretion is as per the procedure described above. The samples of creams described in Examples 4, 5 and 6 were tested for their efficacy in reducing the sebum secretion and the data are presented in Table 3.

Row | Structure (SMILES) | effect in reducing oil secretion on the skin (in words)
1 | NC(=O)c1cccnc1 [niacinamide] | significant effect in reducing oil secretion on the skin
2 | CCCCCCCCCCCCCOC(=O)c1ccccc1O [tridecyl salicylate] | significant effect in reducing oil secretion on the skin
